Consider 12 molecules from patent US20230372496A1, “TRICYCLIC HETEROBIFUNCTIONAL COMPOUNDS FOR DEGRADATION OF TARGETED PROTEINS” (C4 Therapeutics, Inc., priority 2020, published 2023).

Each structure is given as a SMILES string. Like-named read-outs stand apart in the source and are kept apart here.

One experiment deals with NSP3 UBL2_PLpro-HA-HiBiT (Severe acute respiratory syndrome coronavirus 2, UniProt P0DTC1). Kind of experiment: NSP3 UBL2_PLpro-HA-HiBiT degradation assay (cellular) in 293T cells. The settings on record: 6.0 hours; for DC50: read-out: HiBiT-Degradation 293T.234 NSP3_PLpro 6.0 hours (DC50); for Emax: HEK-293T, Emax = residual protein remaining after treatment, read-out: HiBiT-Degradation 293T.234 NSP3_PLpro 6.0 hours (Emax %). The format is cell-based, Severe acute respiratory syndrome Coronavirus 2 (Sars-CoV-2). For orientation: With HiBiT, luminescence reflects the tagged protein that the partner subunit can reach.

For another experiment, the target named is CRBN-DDB1 (Homo sapiens, UniProt Q96SW2). The experiment is described as follows: CRBN FP binding assay (fluorescence polarization). Particulars: 150 nM CRBN-DDB1, 5 nM Alexa-647 probe, read-out: FP CRBN_DDB1.3 ka. On the procedure: The determination of the binding constant (KD) of test compounds to CRBN-DDB1 was carried out using an established sensitive and quantitative in vitro fluorescence polarization (FP) binding assay. Control compounds were run on the same plate. Compounds were dispensed from serially diluted DMSO stock supplied by Frontier Scientific Services Inc in low dead volume plates into black 384-well compatible FP plates using acoustic technology to 1% of total reaction volume. Compounds were arranged vertically in rows A through P. Concentrations series are horizontal: columns 1-11, and then duplicates in columns 12-22. Columns 23 and 24 are reserved for 0% (5 nM probe) and 100% controls (protein at high concentration with 5 nM probe), respectively. […] Matching control plates excluding CRBN-DDB1 were used to correct for background fluorescence. Plates were read on an Envision plate reader with appropriate FP filter sets.
Chain of CRBN-DDB1 (Q96SW2 whole entry): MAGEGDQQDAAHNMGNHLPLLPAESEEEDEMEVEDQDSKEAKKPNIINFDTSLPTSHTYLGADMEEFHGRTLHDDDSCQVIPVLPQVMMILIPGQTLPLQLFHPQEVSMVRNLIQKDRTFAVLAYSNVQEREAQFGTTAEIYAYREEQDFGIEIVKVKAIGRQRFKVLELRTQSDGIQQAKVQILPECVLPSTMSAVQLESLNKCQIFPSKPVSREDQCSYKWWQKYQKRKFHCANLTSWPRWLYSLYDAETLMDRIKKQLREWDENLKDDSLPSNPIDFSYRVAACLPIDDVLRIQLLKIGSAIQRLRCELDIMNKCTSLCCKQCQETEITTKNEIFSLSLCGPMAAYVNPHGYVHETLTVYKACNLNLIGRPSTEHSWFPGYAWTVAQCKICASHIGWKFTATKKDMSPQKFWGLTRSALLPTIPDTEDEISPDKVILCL
Chain of CRBN-DDB1 (Q16531 whole entry partner): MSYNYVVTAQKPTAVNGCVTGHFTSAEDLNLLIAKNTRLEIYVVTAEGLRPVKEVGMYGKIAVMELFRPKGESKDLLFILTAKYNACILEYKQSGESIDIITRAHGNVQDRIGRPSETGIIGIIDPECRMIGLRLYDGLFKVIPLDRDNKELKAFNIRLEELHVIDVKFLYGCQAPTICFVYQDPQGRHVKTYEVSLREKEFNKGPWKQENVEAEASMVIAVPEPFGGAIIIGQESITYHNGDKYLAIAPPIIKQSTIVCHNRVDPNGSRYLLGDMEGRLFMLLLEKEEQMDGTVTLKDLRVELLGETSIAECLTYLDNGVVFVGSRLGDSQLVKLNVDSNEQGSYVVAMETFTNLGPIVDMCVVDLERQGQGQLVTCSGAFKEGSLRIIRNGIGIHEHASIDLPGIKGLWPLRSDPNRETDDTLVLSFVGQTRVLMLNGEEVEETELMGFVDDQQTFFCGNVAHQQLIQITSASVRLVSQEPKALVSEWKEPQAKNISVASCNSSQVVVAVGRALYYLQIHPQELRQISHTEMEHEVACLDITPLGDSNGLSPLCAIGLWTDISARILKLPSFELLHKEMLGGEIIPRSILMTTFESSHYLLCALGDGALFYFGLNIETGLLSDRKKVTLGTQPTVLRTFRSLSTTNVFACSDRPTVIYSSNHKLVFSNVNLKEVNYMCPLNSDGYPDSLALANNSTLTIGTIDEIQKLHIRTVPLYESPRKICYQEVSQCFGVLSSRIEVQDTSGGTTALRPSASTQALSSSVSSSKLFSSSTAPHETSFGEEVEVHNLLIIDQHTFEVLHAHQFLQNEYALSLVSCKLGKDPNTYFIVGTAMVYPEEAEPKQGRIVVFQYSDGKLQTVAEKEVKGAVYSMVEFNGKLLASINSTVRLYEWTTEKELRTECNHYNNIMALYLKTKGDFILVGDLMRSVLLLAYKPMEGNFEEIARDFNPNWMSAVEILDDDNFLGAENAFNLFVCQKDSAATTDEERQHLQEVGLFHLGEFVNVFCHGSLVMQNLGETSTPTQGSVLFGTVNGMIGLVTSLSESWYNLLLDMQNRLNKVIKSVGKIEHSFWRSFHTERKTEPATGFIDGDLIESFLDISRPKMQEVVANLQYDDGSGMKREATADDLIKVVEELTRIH
On the technique in general: In fluorescence polarisation assays a small probe gives low polarisation when free and higher when bound to something large.

The next experiment concerns the target T1, CBP/P300 (Homo sapiens, UniProt Q92793).
T1 construct: endogenous in cells; host or cells: HEK293T (CRISPR/Cas9 HiBiT knock-in at the CBP locus)
Kind of experiment: CBP/P300 degradation, Nano-Glo HiBiT lytic assay. Particulars: HEK293T HiBiT-CBP cells, 6 h incubation; for Emax: HEK-293T. The format is cell-based. The source says:
Assay media was DMEM no-phenol red medium and fetal bovine serum (FBS) were purchased from Gibco (Grand Island, N.Y., USA). Nano-Glo®, 1HiBiT Lydc Assay Systeni was purchased from Promega (Madison, Wis. USA). Stable HEK293T cell line with endogenously tagged HiBiT-CBP was generated in house by CRISPR/Cas9 gene editing introducing the HiBiT fusion tag at the N-terminus using homologous directed repair. Cell culture flasks and 384-well microplates were acquired from VWR (Radnor, Pa., USA).
CBP degradation was determined based on quantification of luminescent signal using Nano-Glo® HiBiT Lytic Assay kit. Test compounds were added to the 384-well plate from a top […] with 11 points, half log titration in duplicates, Cells were added into 384-well Corning 3570 plates, (Corning, Tewksbury, MA, USA) at a cell density of 10,000 cells per well in assay media. The plates were incubated at 37° C. with 5% CO2 for 6 hours. The cells treated in the absence of the test compound were the negative control and media was the positive control. After 6-hour incubation, Nano-Glo® HiBiT Lytic Assay reagents were added to the cells, Luminescence was acquired on EnVision™ Multilabel Reader (PerkinElmer, Santa Clara, Calif., USA).

Another experiment addresses cellular cereblon (CRBN) (Homo sapiens, UniProt Q96SW2). Kind of experiment: NanoBRET CRBN assay, displacement of pomalidomide-NanoBRET tracer in 293T cells. (In BRET a luciferase serves as donor, and the signal depends on an acceptor being close.)
The next experiment has as its system ERK1/2. The experiment is described as follows: ERK1/2 degradation, Total ERK HTRF assay in Colo205 cells. The format is cell-based. The settings on record: 6 h, read-out: ERK1/2 6 h DC50 (Emax %). On the procedure:
Colo205 CCL-222 cells were purchased from ATCC. RPMI 1640 no-phenol red medium and fetal bovine serum (FBS) were purchased from Gibco (Grand Island, NY, USA). Cell culture flasks and 384-well microplates were acquired from VWR (Radnor, PA, USA). Total ERK HTRF assay kits were purchased from Cisbio (64NRKPEH, Bedford, MA, USA).
Degradation of ERK1/2 was determined based on quantification of FRET signal using a Total ERK1/2 HTRF assay kit. Test compounds were added to the 384-well plate from a top concentration of 10 μM with 10 points, half-log titration in duplicates. COL0205 cells were added into 384-well plates at a cell density of 5,000 cells per well. The plates were kept at 37° C. with 5% CO2 for 6 hours. Cells treated in the absence of the test compound were the negative control. Positive control was set by wells containing all reagents but no cells. HTRF regents were added according to manufacturer's instructions with the additional step of lysate denaturation at 95° C. for 10 minutes and cooling to room temperature before antibody addition. Following addition of the antibodies the samples were incubated overnight. FRET signal was acquired on an EnVision™ Multilabel Reader (PerkinElmer, Santa Clara, CA, USA).

Where [1] appears, read: 1.5 h room temperature, numeric bounds.
Where [2] appears, read: 1.5 h room temperature, class symbols.

T1 sequence (Q92793 whole entry): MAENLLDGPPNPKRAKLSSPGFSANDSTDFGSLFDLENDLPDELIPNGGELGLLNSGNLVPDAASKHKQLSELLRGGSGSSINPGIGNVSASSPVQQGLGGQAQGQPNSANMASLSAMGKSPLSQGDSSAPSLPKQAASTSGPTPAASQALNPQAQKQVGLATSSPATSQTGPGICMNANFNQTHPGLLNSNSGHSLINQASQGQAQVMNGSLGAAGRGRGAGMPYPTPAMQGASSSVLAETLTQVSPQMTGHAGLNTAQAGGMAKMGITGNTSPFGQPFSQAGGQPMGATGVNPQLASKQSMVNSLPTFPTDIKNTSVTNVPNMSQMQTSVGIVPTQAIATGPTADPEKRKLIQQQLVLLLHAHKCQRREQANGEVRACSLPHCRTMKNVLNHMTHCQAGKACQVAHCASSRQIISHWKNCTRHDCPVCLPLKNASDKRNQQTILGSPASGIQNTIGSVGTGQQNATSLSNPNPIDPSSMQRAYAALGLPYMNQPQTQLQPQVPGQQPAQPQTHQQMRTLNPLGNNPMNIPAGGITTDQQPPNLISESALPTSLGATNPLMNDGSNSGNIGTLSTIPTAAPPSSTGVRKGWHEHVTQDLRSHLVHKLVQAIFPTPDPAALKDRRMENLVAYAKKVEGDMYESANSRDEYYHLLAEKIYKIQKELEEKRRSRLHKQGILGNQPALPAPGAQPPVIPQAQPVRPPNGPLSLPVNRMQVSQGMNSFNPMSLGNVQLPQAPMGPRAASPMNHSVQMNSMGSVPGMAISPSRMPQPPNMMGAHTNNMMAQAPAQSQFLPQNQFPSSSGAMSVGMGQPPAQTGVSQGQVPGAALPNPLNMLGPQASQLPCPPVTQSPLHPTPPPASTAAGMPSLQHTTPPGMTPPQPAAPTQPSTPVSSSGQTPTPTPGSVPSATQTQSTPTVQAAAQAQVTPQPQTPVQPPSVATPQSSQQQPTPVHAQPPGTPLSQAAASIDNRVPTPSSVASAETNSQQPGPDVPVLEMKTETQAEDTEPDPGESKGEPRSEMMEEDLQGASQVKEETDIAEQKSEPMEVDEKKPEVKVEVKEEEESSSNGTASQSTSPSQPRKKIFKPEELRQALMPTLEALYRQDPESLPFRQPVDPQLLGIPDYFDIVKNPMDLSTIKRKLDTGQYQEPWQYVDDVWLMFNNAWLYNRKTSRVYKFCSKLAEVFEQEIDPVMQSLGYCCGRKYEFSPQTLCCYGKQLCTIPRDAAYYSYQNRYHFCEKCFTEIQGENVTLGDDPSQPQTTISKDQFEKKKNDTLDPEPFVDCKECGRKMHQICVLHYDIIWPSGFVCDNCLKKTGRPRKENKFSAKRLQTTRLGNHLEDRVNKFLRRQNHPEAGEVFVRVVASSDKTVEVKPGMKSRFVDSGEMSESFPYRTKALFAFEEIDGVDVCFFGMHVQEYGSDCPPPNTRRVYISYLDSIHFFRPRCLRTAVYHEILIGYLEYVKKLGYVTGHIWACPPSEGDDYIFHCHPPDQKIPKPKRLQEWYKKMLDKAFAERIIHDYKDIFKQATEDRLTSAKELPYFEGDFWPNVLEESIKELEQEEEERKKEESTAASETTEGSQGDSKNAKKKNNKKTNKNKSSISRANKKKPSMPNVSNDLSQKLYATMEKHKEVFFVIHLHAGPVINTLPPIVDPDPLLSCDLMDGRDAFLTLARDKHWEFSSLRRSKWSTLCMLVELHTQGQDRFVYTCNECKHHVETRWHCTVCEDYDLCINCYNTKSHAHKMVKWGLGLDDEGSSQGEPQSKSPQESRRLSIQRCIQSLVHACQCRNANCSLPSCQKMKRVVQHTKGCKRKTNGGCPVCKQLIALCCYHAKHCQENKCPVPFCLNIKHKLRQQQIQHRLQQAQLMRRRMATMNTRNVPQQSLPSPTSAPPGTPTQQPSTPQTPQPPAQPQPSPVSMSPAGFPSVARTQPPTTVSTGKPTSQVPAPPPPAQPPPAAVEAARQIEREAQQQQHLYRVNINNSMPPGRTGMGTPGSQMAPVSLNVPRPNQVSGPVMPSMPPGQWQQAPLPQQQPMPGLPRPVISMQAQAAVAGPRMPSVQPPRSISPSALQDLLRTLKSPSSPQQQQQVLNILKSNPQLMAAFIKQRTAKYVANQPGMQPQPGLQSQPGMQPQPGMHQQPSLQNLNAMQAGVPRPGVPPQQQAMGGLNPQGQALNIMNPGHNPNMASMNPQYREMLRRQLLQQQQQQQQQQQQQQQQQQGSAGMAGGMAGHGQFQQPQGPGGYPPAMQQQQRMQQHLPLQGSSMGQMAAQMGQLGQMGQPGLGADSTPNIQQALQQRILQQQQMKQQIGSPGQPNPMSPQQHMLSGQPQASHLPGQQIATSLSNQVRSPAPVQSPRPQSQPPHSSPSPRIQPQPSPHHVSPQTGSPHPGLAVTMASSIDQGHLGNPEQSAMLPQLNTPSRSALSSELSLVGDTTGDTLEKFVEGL
Chain of cellular cereblon (CRBN) (Q96SW2 whole entry, species assumed): as the sequence (Q96SW2 whole entry) above

What is called Emax is the maximal effect, on the per cent scale that the assay sets. Turning to `CC(c1cccc2c(C#CC3CCN(C(=O)CN4CCC(c5ccc6c7c(cccc57)C(=O)N6C5CCC(=O)NC5=O)CC4)CC3)cccc12)N1CCC(C(=O)NCc2cccc(F)c2)CC1` (stereo not drawn) [Compound 104, 1-[1-[5-[2-[1-[2-[4-[1-(2,6-dioxo-3-piperidyl)-2-oxo-benzo[cd]indol-6-yl]-1-piperidyl]acetyl]-4-piperidyl]ethynyl]-1-naphthyl]ethyl]-N-[(3-fluorophenyl)methyl]piperidine-4-carboxamide], at NSP3 UBL2_PLpro-HA-HiBiT, the DC50 is > 10000 nM and the Emax was 61 to 95%.

Regarding `CC(c1ccc(C#CC2CCN(C(=O)CN3CCC(c4ccc5c6c(cccc46)N(C4CCC(=O)NC4=O)C5=O)CC3)CC2)c2ccccc12)N1CCC(C(=O)NCc2cccc(F)c2)CC1` (stereo not drawn) [Compound 103, 1-[1-[4-[2-[1-[2-[4-[1-(2,6-dioxo-3-piperidyl)-2-oxo-benzo[cd]indol-5-yl]-1-piperidyl]acetyl]-4-piperidyl]ethynyl]-1-naphthyl]ethyl]-N-[(3-fluorophenyl)methyl]piperidine-4-carboxamide], on NSP3 UBL2_PLpro-HA-HiBiT, the DC50 is > 10000 nM and the Emax was 61 to 95%.

Take `CNC(=O)N1CCc2c(c(N3CCCc4cc(-c5cnn(C)c5)c(C(F)F)cc43)nn2C2CCN(C(=O)CCCCCCCCN3CCC(Nc4ccc5c6c(cccc46)C(=O)N5C4CCC(=O)NC4=O)CC3)CC2)C1` (stereo not drawn): on CRBN-DDB1 (setting [1]), the Kd was < 10 nM. On CBP/P300, the DC50 is < 10 nM and the Emax was < 30%.

A word on the IC50: it is the point on the concentration scale where inhibition reaches its midpoint. A lower IC50 goes with inhibition by little substance. As for `COC(=O)c1ccc2c3c(cccc13)C(=O)N2C1CCC(=O)NC1=O` (stereo not drawn), at CRBN-DDB1 (setting [2]), the Kd was 100 to 1000 nM. The IC50 at cellular cereblon (CRBN) is < 100 nM.

In the case of `CC(c1cccc2c(C#CC3CCN(C(=O)CN4CCC(c5ccc6c7c(cccc57)N(C5CCC(=O)NC5=O)C6=O)CC4)CC3)cccc12)N1CCC(C(=O)NCc2cccc(F)c2)CC1` (stereo not drawn) [Compound 105, 1-[1-[5-[2-[1-[2-[4-[1-(2,6-dioxo-3-piperidyl)-2-oxo-benzo[cd]indol-5-yl]-1-piperidyl]acetyl]-4-piperidyl]ethynyl]-1-naphthyl]ethyl]-N-[(3-fluorophenyl)methyl]piperidine-4-carboxamide], on NSP3 UBL2_PLpro-HA-HiBiT, the DC50 was > 10000 nM and the Emax was 61 to 95%.

Take `CNC(=O)N1CCc2c(c(N3CCCc4cc(-c5cnn(C)c5)c(C(F)F)cc43)nn2C2CCN(C(=O)CCCCCCCCN3CCC(c4ccc5c6c(cccc46)C(=O)N5C4CCC(=O)NC4=O)CC3)CC2)C1` (stereo not drawn): at CRBN-DDB1 (setting [1]), the Kd was < 10 nM. Also, on CBP/P300, the DC50 is < 10 nM and the Emax was < 30%.

Consider `O=C1CCC(N2C(=O)C3CCCc4c(C5CCN(CCCC(=O)N6CC(c7nc8ccc(-c9n[nH]c%10cc%11c(cc9%10)CN(Cc9ccccc9)C(=O)N%11)cc8o7)C6)CC5)ccc2c43)C(=O)N1` (stereo not drawn), for which the Kd at CRBN-DDB1 (class symbols) was 1000 to 10000 nM. Also, in the experiment on ERK1/2, the DC50 was 100 to 1000 nM.

On to `Nc1ccc2c3c(cccc13)C(=O)N2C1CCC(=O)NC1=O` (stereo not drawn), for which the Kd on CRBN-DDB1 (setting [2]) was in the range of 100 to 1000 nM. Moreover, the IC50 on cellular cereblon (CRBN) is < 100 nM.

Take `N#Cc1ccc2c3c(cccc13)C(=O)N2C1CCC(=O)NC1=O` (stereo not drawn): at cellular cereblon (CRBN), the half-maximal inhibitory concentration (IC50) is < 100 nM.

Turning to `O=C1CCC(N2C(=O)c3cccc4c(C5CCN(CC(=O)N6CC(c7nc8ccc(-c9n[nH]c%10cc%11c(cc9%10)CN(Cc9ccccc9)C(=O)N%11)cc8o7)C6)CC5)ccc2c34)C(=O)N1` (stereo not drawn), the Kd on CRBN-DDB1 (class symbols) is 1000 to 10000 nM. Moreover, the DC50 in the experiment on ERK1/2 lay in the range of 100 to 1000 nM.

Take `O=C1CCC(N2C(=O)c3cccc4c(C5CCNCC5)ccc2c34)C(=O)N1` (stereo not drawn): at cellular cereblon (CRBN), the IC50 was < 100 nM.

Regarding `CC(c1ccc(C#CC2CCN(C(=O)CN3CCC(c4ccc5c6c(cccc46)C(=O)N5C4CCC(=O)NC4=O)CC3)CC2)c2ccccc12)N1CCC(C(=O)NCc2cccc(F)c2)CC1` (stereo not drawn) [Compound 102, 1-[1-[4-[2-[1-[2-[4-[1-(2,6-dioxo-3-piperidyl)-2-oxo-benzo[cd]indol-6-yl]-1-piperidyl]acetyl]-4-piperidyl]ethynyl]-1-naphthyl]ethyl]-N-[(3-fluorophenyl)methyl]piperidine-4-carboxamide], at NSP3 UBL2_PLpro-HA-HiBiT, the DC50 is > 10000 nM and the maximal response (Emax) lay within 61 to 95%.
